Where two headings read alike, the source gives them in different places.
Experiments:
[1] = system: HepG2 cells; test: Apoptotic effect of combined treatment in presence of Chk2 inhibitor; type: cell-based, human; details: with cabozantinib and CBD; FIG. 7A
Source text: (§1) Next, to determine whether Chk2 activated by combined treatment with cabozantinib and CBD affects apoptosis, the anti-apoptotic effect mediated by Chk2 inhibitors was confirmed.

[2] = system: p53; test: Phosphorylation of p53 in presence of Chk2 inhibitor; type: cell-based, human; details: with cabozantinib and CBD; FIG. 7B
Source text: as §1

[3] = system: apoptotic proteins; test: Levels of apoptotic proteins in presence of Chk2 inhibitor; type: cell-based, human; details: with cabozantinib and CBD; FIG. 7B
Source text: as §1

[4] = system: HepG2 cells; test: Combined treatment effect of cabozantinib with cannabis-related compounds (cell viability); type: cell-based; details: Homo sapiens, read-out: IC50 with Cabozantinib
Procedure: (§2) Cells (1.0×10^4) were seeded in 96-well plates and cultured in a medium for 24 hours. The cultured cells were treated with various concentrations of CBD and/or cabozantinib, etc., for 48 hours, and then cell viability was measured using a WST-8 assay kit (Biomax, SEOUL, Korea).
(§3) Specifically, HepG2 cells, a hepatoma cell line, were seeded at a concentration of 1×10^4 cells/well in a 96-well plate and cultured for 24 hours in an incubator at 37° C. and 10% CO2, then they were treated with cabozantinib at various concentrations and treated or not with cannabidiol (20 μM), and then cultured under the same conditions for 48 hours. After completion of the culture, 1/10 of the WST-8 solution (Quanti-Max™, BIOMAX, Korea) was added to the medium, and the culture was further conducted at 37° C. for 1 hour, the absorbance was measured at 450 nm to determine the cell viability, which was expressed as a ratio to the untreated control group. This experiment was conducted independently and repeated three times. Additionally, as positive control groups, sorafenib, lenvatinib, or regorafenib were treated instead of cabozantinib, respectively.

[5] = system: pCDH-Ctrl HepG2 cells; test: Cell viability in control vector (pCDH-Ctrl) HepG2 cells with or without CBD; type: cell-based; details: Homo sapiens
Procedure: as §2
(§4) Total RNA was extracted from normal liver tissues and cDNA was synthesized to clone a tagged CNR1 and CNR2 coding gene sequences into a pCDH-CMV-EF1-puro vector. The CNR1 and CNR2 genes were amplified by PCR using specific primers including 5′-extension and NotI (NEB, Ipswich, MA, USA) and XbaI (NEB) restriction sites. CloneAmp HiFi PCR Premix ([…], San Jose, CA, USA) was used for PCR reactions. Subsequently, amplicons were obtained from the PCR products by gel extraction, digested with NotI and XbaI enzymes, and cloned into the pCDH-CMV-EF1-puro vector using the In-Fusion® cloning system according to the manufacturer's instructions.
(§5) HepG2 cells were transfected with pCDH-CMV-EF1-puro including the tagged CNR1 and CNR2 coding sequences together with gag-pol and VSV-G plasmids (plasmids 14887 and 8454, respectively; Addgene, Cambridge, MA, USA). […] To confirm the specificity and efficiency of CNR1 and CNR2 overexpression, mRNA expression levels were analyzed using RT-PCR. […]

[6] = system: pCDH-CNR1 HepG2 cells; test: Cell viability in CNR1 overexpressing HepG2 cells with or without CBD; type: cell-based; details: Homo sapiens
Procedure: as §2, §4, §5

[7] = system: HepG2 cells; test: Cell viability (WST-8) of anticancer agents with or without CBD; type: cell-based, human; details: for IC50: Homo sapiens, HepG2, 48 h
Procedure: Human HCC cell lines (HepG2 and Hep3B) were purchased from the American Type Culture Collection (ATCC). The cell lines were cultured in MEM (Gibco, Carlsbad, MD, USA) and DMEM (Gibco) supplemented with 10% FBS (Gibco), 100 U/mL penicillin, and 100 µg/mL streptomycin, respectively.
as §2, §3

[8] = system: VEGFR2; details: known; cited from earlier work
[9] = system: tyrosine kinase c-Met; details: known; cited from earlier work
[10] = system: pCDH-CNR2 HepG2 cells; test: Cell viability in CNR2 overexpressing HepG2 cells with or without CBD; type: cell-based; details: Homo sapiens
Procedure: as §2, §4, §5

[11] = system: HepG2 cells; test: Inhibition of apoptosis by L-ascorbic acid; type: cell-based, human; details: ER stress induced by cabozantinib and CBD; FIG. 11
Procedure: (§6) Next, the effect of L-ascorbic acid (LAA), known to alleviate ER stress, on the inhibition of P53 activation and apoptosis was investigated. As a result, it was confirmed that p53 activation and apoptosis caused by ER stress induced by combined treatment with cabozantinib and CBD were suppressed when LAA was treated (FIG. 11).

[12] = system: p53; test: Inhibition of P53 activation by L-ascorbic acid; type: cell-based, human; details: ER stress induced by cabozantinib and CBD; FIG. 11
Procedure: as §6

[13] = HepG2, 48 h, combined with cabozantinib
[14] = HepG2, read-out: IC50 without CBD
[15] = with 20 μM CBD, read-out: IC50 with CBD
[16] = without CBD, read-out: IC50 without CBD

NC(=O)c1ccc2nc(-c3ccc(Oc4ccc(Cl)cc4)cc3)[nH]c2c1 [BML-277]
effect on the apoptotic effect of combined treatment [1]: inhibited the apoptotic effect | effect on phosphorylation of p53 [2]: reduced the phosphorylation of p53 | effect on levels of apoptotic proteins [3]: reduced

C=C(C)[C@@H]1CCC(C)=C[C@H]1c1c(O)cc(CCCCC)c(C(=O)O)c1O [CBDA, cannabidiolic acid]
IC50 [4, 13]: 35.9 ± 1.35 µM

COc1cc2nccc(Oc3ccc(NC(=O)C4(C(=O)Nc5ccc(F)cc5)CC4)cc3)c2cc1OC [Cabozantinib]
IC50 ([5]; HepG2, read-out: IC50 with CBD): 16 µM | IC50 [5, 14]: > 100 µM | IC50 ([6]; HepG2, read-out: IC50 with CBD): 20.2 µM | IC50 [6, 14]: > 100 µM | IC50 [7, 15]: 15.8 µM | IC50 [7, 16]: > 100 µM | toxicity of cabozantinib against HepG2 cells when combine treated with cannabidiol ([7]; vs cabozantinib alone, 20 μM CBD, 48 h, FIG. 4A): significantly increased | inhibition of VEGFR2 [8]: inhibit tyrosine kinase c-Met and VEGFR2 | inhibition of tyrosine kinase c-Met [9]: inhibit tyrosine kinase c-Met and VEGFR2 | IC50 ([10]; HepG2, read-out: IC50 with CBD): 18.2 µM | IC50 [10, 14]: > 100 µM

O=C1O[C@H]([C@@H](O)CO)C(O)=C1O [LAA, L-ascorbic acid]
effect on apoptosis caused by ER stress [11]: suppressed | effect on p53 activation caused by ER stress [12]: suppressed

COc1cc2nccc(Oc3ccc(NC(=O)NC4CC4)c(Cl)c3)c2cc1C(N)=O [Lenvatinib]
IC50 [7, 15]: > 100 µM | IC50 [7, 16]: > 100 µM

CNC(=O)c1cc(Oc2ccc(NC(=O)Nc3ccc(Cl)c(C(F)(F)F)c3)c(F)c2)ccn1 [Regorafenib]
IC50 [7, 15]: 9.74 µM | IC50 [7, 16]: 14.1 µM

CNC(=O)c1cc(Oc2ccc(NC(=O)Nc3ccc(Cl)c(C(F)(F)F)c3)cc2)ccn1 [Sorafenib]
IC50 [7, 15]: 9.24 µM | IC50 [7, 16]: 14.6 µM

CCCCCc1cc(O)c2c(c1)OC(C)(C)[C@@H]1CCC(C)=C[C@@H]21 [THC, tetrahydrocannabinol]
IC50 ([4]; HepG2, 48 h): 23.9 ± 0.55 µM

CCCCCc1cc2c(c(O)c1C(=O)O)[C@@H]1C=C(C)CC[C@H]1C(C)(C)O2 [THCA]
IC50 [4, 13]: 30.4 ± 0.85 µM
